Experimental data from PMC8955265, “Systematic Discovery of FBXW7-Binding Phosphodegrons Highlights Mitogen-Activated Protein Kinases as Important Regulators of Intracellular Protein Levels” (International Journal of Molecular Sciences, 2022).
Each block holds one compound with its values, some of them ahead of it. Where a SMILES comes first, the peptide text is derived from it. [ ]: non-standard residue; d: D form. The star is where a group is joined. 5FAM = O=C1OC2(c3ccc(O)cc3Oc3cc(O)ccc32)c2ccc(C(=O)*)cc21; pT = C[C@@H](OP(=O)(O)O)[C@H](N)C(=O)O; pS = N[C@@H](COP(=O)(O)O)C(=O)O; Cbz = O=C(OCc1ccccc1)*

Assays:
[1] = system: FBXW7-mediated protein degradation; assay: Western blot of protein levels in FBXW7-transfected cells; type: cell-based, HEK293T cells
Method: (§1) HEK293T cells (purchased from ATCC, CRL-3216) were cultured in Dulbecco’s Modified Eagle’s Medium (DMEM, Gibco, Waltham, MA, USA) containing 10% FBS (Gibco, Cat# 10500064), 100 µg/mL Pen/strep (Sigma, P0781) and Amphotericin B (Thermo Fisher, 15290026) at 37 °C in an atmosphere of 5% CO2. Approximately 90,000 cells were plated in 24-well Greiner bio-one plates (#662-160). The next day cells were transfected with Lipofectamine 3000 reagent (L3000001, Invitrogen, Waltham, MA, USA) using the Opti-MEM reduced serum media (Gibco, 31985062). The transfection media was changed with complete DMEM after 4–6 h of transfection. Cells in a 24-well plate were transfected with 500 ng of plasmid DNA in total, for co-transfection each plasmid construct was used in 250 ng amount. For western blots, cells were washed in ice-cold PBS and harvested in SDS loading buffer and then subjected to SDS-PAGE. The samples were then transferred to nitrocellulose membrane. Primary antibodies were the following: Anti-V5 (Invitrogen; 1:5000 dilution), anti-FLAG (Sigma #F1804; 1:5000 dilution), anti-cMyc (#2276, Cell signaling, Danvers, MA, USA) 1:1000 dilution) and anti-tubulin (Sigma #T6199; 1:50,000 dilution). Secondary antibodies (IRDye® 800CW Goat anti-Mouse IgG, LiCOR #926-32210 and IRDye® 680CW Goat anti-Mouse IgG, LiCOR #926-68070; 1:5000 dilution) were used according to the recommendation of the manufacturer and blots were analyzed by Odyssey CLx imaging system (Li-Cor). Kinase inhibitors were used in 2 µM concentration added 6 h before protein level measurements: GSK3—CHR99021 (#S2924, Selleckchem, Munich, Germany), ERK1/2—SCH772984 (Selleckchem, #S7101), p38—SB202190 (Sigma-Aldrich, #S7067), and JNK—JNK-IN-8 (Selleckchem, #S4901). MG132 proteosomal inhibitor (Merck, #474790) was used in 10 µM concentration and cycloheximide (# 239763, Calbiochem, San Diego, CA, USA) was used in 100 µg/mL concentration.

FBXW7 = assay: Ratiometric EGFP/DsRed protein degradation assay with degron probes; type: cell-based, human; settings: HEK293T + FBXW7, MG132, EGFP/DsRed ratio
[2] = system: FBXW7-mediated protein degradation; assay: Ratiometric DsRed/EGFP protein level assay of full-length proteins with kinase inhibitors; type: cell-based, HEK293T cells; settings: 6 h
Method: as §1, with “concentration. HEK293T cells were washed with 500 μL ice-cold PBS twice and gently collected using a pipette 48 h after transfection. The suspension was centrifuged at 500× g for 10 min at 4 °C. After centrifugation, the cell pellet was resuspended in 110 µL ice cold PBS and the fluorescence signal for EGFP (Excitation 485 nm; Emission 515 nm) and DsRed (Excitation 550 nm; Emission 580 nm) was measured in Corning 384-well microplate (#4514) using a plate reader (CytationTM 3, BioTek Instruments, Winooski, VT, USA).” for “concentration.”

Skp1-FBXW7 complex = biological target: T1, Skp1-FBXW7 complex (Homo sapiens, UniProt P63208+Q969H0); assay: Fluorescence polarization direct titration of labeled CCNE peptide; type: binding; settings: FP direct titration, 50 nM CF-labeled CCNE peptide with increasing Skp1-FBXW7; 20 mM Tris pH 8.0, 100 mM NaCl, 0.05% Brij35P, 2 mM TCEP; value printed in plot
T1 construct: human FBXW7 (263-707) with an N-terminal hexa-histidine (His6) tag; His6 (N, cleaved yes); made in house; host or cells: E. coli Rosetta (DE3)
Method: Truncated Skp1 (1-149) and human FBXW7 (263-707) with an N-terminal hexa-histidine (His6) tag were cloned into a bicistronic plasmid (pMG950) and were co-expressed in E. coli Rosetta (DE3) strain. The Skp1-FBXW7 complex was purified using affinity, anion exchange, and gel filtration chromatography. The DNA expression plasmid was transformed into E. coli Rosetta (DE3) strain and grown in LB until OD600 = 0.5, protein expression was induced with 100 µM isopropyl-β-d-1-thigalatopyaranoside (IPTG) overnight at 18 °C. The cell pellet was lysed, and the recombinant protein was purified using Ni-NTA agarose beads. Before further purification the His6-tag was removed by using the TEV protease and then the protein complex was further purified using anion exchange chromatography twice, first with a Resource Q and then with a Mono Q column (pH = 8). Finally, the complex was subjected to size-exclusion chromatography in 20 mM Tris, pH = 8, 150 mM NaCl, and 1 mM DTT using a Superdex200 10/300 column (GE Healthcare, Chicago, IL, USA). The eluted fractions were pooled together and were supplemented with 10% glycerol and 2 mM TCEP before concentration and storage. […]

T1 sequence (Q969H0 263-707): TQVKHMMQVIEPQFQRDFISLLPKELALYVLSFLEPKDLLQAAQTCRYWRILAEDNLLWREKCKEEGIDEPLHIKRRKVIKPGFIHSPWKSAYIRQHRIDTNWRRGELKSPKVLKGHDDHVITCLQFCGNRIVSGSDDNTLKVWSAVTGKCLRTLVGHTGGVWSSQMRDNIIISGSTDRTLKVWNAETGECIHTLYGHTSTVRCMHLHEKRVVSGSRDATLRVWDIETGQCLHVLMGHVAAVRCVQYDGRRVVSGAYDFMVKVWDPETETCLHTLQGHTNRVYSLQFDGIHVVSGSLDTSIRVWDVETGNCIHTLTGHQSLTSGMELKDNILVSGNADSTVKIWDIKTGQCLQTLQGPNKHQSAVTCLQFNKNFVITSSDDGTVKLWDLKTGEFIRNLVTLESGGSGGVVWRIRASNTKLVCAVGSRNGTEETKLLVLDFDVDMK
T1 sequence (P63208 1-149 partner limits assumed): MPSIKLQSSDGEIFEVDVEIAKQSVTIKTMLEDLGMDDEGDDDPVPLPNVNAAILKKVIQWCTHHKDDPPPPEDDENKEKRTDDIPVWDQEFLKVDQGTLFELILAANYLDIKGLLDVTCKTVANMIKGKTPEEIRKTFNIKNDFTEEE

SMILES: CC(C)C[C@@H](C=O)NC(=O)[C@H](CC(C)C)NC(=O)[C@H](CC(C)C)NC(=O)OCc1ccccc1 [MG132] (Cbz-Leu-Leu-Leu-aldehyde)
- protein level of the CycECO-V5 probe ([1]; HEK293T transfected with FBXW7 plasmid, MG132 10 µM, anti-V5 western blot): counteracted the effect of FBXW7 expression
- protein levels of full-length constructs in the presence of FBXW7 ([1]; KLF4, ETV5, ARID4B, CDT1, ZMIZ1, JAZF1 V5-tagged constructs, HEK293T, MG132 10 µM, western blot): counteracted the effect of FBXW7
- CycEco-EGFP probe degradation (FBXW7): blocked

- degradation of JAZF1 ([2]; full-length JAZF1, HEK293T + FBXW7, inhibitor 2 µM): lower
- ZMIZ1 level ([2]; full-length ZMIZ1, HEK293T + FBXW7, inhibitor 2 µM): affected
SMILES: Oc1ccc(-c2nc(-c3ccncc3)c(-c3ccc(F)cc3)[nH]2)cc1 [SB202190]
- FBXW7-mediated degradation of the JAZF1-SUZ12 fusion construct ([1]; HEK293T co-transfected with Fusion WT and FBXW7, inhibitor 2 µM, anti-Myc western blot): counteracted

- Kd (Skp1-FBXW7 complex): 2.8 ± 1.6 nM
SMILES: CC(C)C[C@H](NC(=O)CNC(=O)[C@H](CO)NC(=O)[C@@H]1CCCN1C(=O)c1ccc2c(c1)C(=O)OC21c2ccc(O)cc2Oc2cc(O)ccc21)C(=O)N[C@@H](CC(C)C)C(=O)N[C@H](C(=O)N1CCC[C@H]1C(=O)N1CCC[C@H]1C(=O)N[C@@H](CCC(N)=O)C(=O)N[C@@H](COP(=O)(O)O)C(=O)NCC(=O)N[C@@H](CCCCN)C(=O)N[C@@H](CCCCN)C(=O)N[C@@H](CCC(N)=O)C(=O)O)[C@@H](C)OP(=O)(O)O [fluorescently labeled CCNE peptide] (5FAM-PSGLL[pT]PPQ[pS]GKKQ-OH)
